# Test results as given in patent US20090291964A1, “Potentiators of Antibacterial Activity” (priority 2003, published 2009).
# How the values were obtained:
# Assay type in all cases: cell-based
# [1] = tested on: wild type gram negative organisms (E. coli, P. aeruginosa, and H. influenzae); experiment: MIC of EtBr in presence and absence of EPI; conditions: all wild type gram-negative organisms, compared with gram-positive
# Text: EtBr is a general substrate for many different efflux pumps in bacteria. Markham et al., “Multiple Novel Inhibitors of the NorA Multidrug Transporter of Staphylococcus aureus”, Antimicrob. Agents Chemother. 43:2404-2408 (1999). Since EtBr is a non-specific DNA intercalator, the only known mechanism of resistance to EtBr is via efflux. Markham et al., “Multiple Novel Inhibitors of the NorA Multidrug Transporter of Staphylococcus aureus”, Antimicrob. Agents Chemother. 43:2404-2408 (1999).
# S. aureus ATCC 29213 = experiment: Ethidium bromide efflux fluorescence assay; conditions: EPIs at 4 times MEC for EtBr, A-106 at 100 μg/ml; versus control cells without EPI
# Description: S. aureus cells were loaded with EtBr as described in Example 1. EPIs were used at 4XMEC (minimal effective concentration) (25 μg/ml reserpine; 100 μg/ml VX-710 (compound A-106 in Table A-2); 6.25 μg/ml VX-853 (compound C-9 in Table C-I), and no EPI control—as labeled). Fluorescence was continuously monitored over time at room temperature and results are an average of at least 3 replicates.
# Ethidium bromide (EtBr) efflux assays with S. aureus were performed using the method described by Markham et al. (Markham, et al., “Multiple Novel Inhibitors of the NorA Multidrug Transporter of Staphylococcus aureus”, Antimicrob. Agents Chemother. 43:2404-2408 (1999)). […] Ethidium bromide efflux was determined by continuously monitoring fluorescence at an excitation wavelength of 530 nm and an emission wavelength of 600 nm in a black 96-well polystyrene plate with clear, flat bottom (Costar #3904, Cambridge, Mass.) using a SpectraMax Gemini spectrofluorimeter (Molecular Devices, Sunnydale, Calif.). […]
# Markham et al., “Multiple Novel Inhibitors of the NorA Multidrug Transporter of Staphylococcus aureus”, Antimicrob. […] Since ethidium only fluoresces when it is bound to nucleic acid inside of cells, a decrease in fluorescence over time is due to active efflux. […]
# [2] = tested on: S. aureus clinical isolates; experiment: MIC90 studies: fluoroquinolone susceptibility of clinical isolate panel with EPI; conditions: EPI at 50 μg/ml
# Description: (§1) Susceptibility studies with large panels of resistant clinical isolates were performed at Focus Technologies, Herndon, Va. according to NCCLS protocols (National Committee for Clinical Laboratory Standards, supra).
# (§2) To be useful in combination therapy, an EPI needs to substantially reduce the MIC of an antibiotic to within the range of clinical susceptibility. Because many different resistance mechanisms are often present in clinical isolates, including the likelihood of multiple target-based mutations in addition to efflux mutations, the barrier to antibiotic efficacy is much greater. […] Oxacillin and vancomycin MICs were also determined to identify which isolates were methicillin-resistant (S. aureus) and vancomycin-resistant (E. faecalis).
# [3] = tested on: E. faecalis clinical isolates; experiment: as above; conditions: EPI at 50 μg/ml
# Description: as §1, §2
# [4] = E. faecalis clinical isolate 10
# [5] = E. faecalis clinical isolate 11
# [6] = E. faecalis clinical isolate 12
# [7] = E. faecalis clinical isolate 13
# [8] = E. faecalis clinical isolate 14
# [9] = E. faecalis clinical isolate 15
# [10] = E. faecalis clinical isolate 16
# [11] = E. faecalis clinical isolate 17
# [12] = E. faecalis clinical isolate 18
# [13] = E. faecalis clinical isolate 19
# [14] = E. faecalis clinical isolate 20
# [15] = E. faecalis clinical isolate 21
# [16] = E. faecalis clinical isolate 22
# [17] = E. faecalis clinical isolate 23
# [18] = E. faecalis clinical isolate 24
# [19] = E. faecalis clinical isolate 25
# [20] = E. faecalis clinical isolate 26
structure (smiles),measurement,setting,value
"COc1cc(C(=O)C(=O)N(C)[C@@H](Cc2ccc(Cl)cc2)C(=O)N(Cc2ccccc2)C(CCc2ccncc2)CCc2ccncc2)cc(OC)c1OC [C-9, (S)—N-Benzyl-2-(methyl-(2-oxo-2-(3,4,5-trimethoxyphenyl)acetyl)amino)-3-(4-chloro-phenyl)-N-(3-pyridin-4-yl-1-(2-pyridin-4-yl-ethyl)propyl)propionamide]",activity against efflux of EtBr,[1],much less active
same,loss of EtBr fluorescence over time (FIG. 1),S. aureus ATCC 29213,much more gradual loss of fluorescence
same,decrease in MIC of ciprofloxacin and norfloxacin,[2]; S. aureus isolates,no significant (>2-fold) decrease in MIC
same,Ciprofloxacin MIC with EPI,[2]; S. aureus clinical isolate 1,1 µg/mL
same,Norfloxacin MIC with EPI,[2]; S. aureus clinical isolate 1,8 µg/mL
same,Ciprofloxacin MIC with EPI,[2]; S. aureus clinical isolate 2,0.5 µg/mL
same,Norfloxacin MIC with EPI,[2]; S. aureus clinical isolate 2,1 µg/mL
same,Ciprofloxacin MIC with EPI,[2]; S. aureus clinical isolate 3,1 µg/mL
same,Norfloxacin MIC with EPI,[2]; S. aureus clinical isolate 3,4 µg/mL
same,Ciprofloxacin MIC with EPI,[2]; S. aureus clinical isolate 4,64 µg/mL
same,Norfloxacin MIC with EPI,[2]; S. aureus clinical isolate 4,128 µg/mL
same,Ciprofloxacin MIC with EPI,[2]; S. aureus clinical isolate 5,1 µg/mL
same,Norfloxacin MIC with EPI,[2]; S. aureus clinical isolate 5,2 µg/mL
same,Ciprofloxacin MIC with EPI,[2]; S. aureus clinical isolate 6,32 µg/mL
same,Norfloxacin MIC with EPI,[2]; S. aureus clinical isolate 6,128 µg/mL
same,Ciprofloxacin MIC with EPI,[2]; S. aureus clinical isolate 7,0.5 µg/mL
same,Norfloxacin MIC with EPI,[2]; S. aureus clinical isolate 7,2 µg/mL
same,Ciprofloxacin MIC with EPI,[2]; S. aureus clinical isolate 8,1 µg/mL
same,Norfloxacin MIC with EPI,[2]; S. aureus clinical isolate 8,4 µg/mL
same,Ciprofloxacin MIC with EPI,[2]; S. aureus clinical isolate 9,1 µg/mL
same,Norfloxacin MIC with EPI,[2]; S. aureus clinical isolate 9,4 µg/mL
same,Ciprofloxacin MIC with EPI,[2]; S. aureus clinical isolate 10,16 µg/mL
same,Norfloxacin MIC with EPI,[2]; S. aureus clinical isolate 10,64 µg/mL
same,Ciprofloxacin MIC with EPI,[2]; S. aureus clinical isolate 11,32 µg/mL
same,Norfloxacin MIC with EPI,[2]; S. aureus clinical isolate 11,64 µg/mL
same,Ciprofloxacin MIC with EPI,[2]; S. aureus clinical isolate 12,0.25 µg/mL
same,Norfloxacin MIC with EPI,[2]; S. aureus clinical isolate 12,1 µg/mL
same,Ciprofloxacin MIC with EPI,[2]; S. aureus clinical isolate 13,64 µg/mL
same,Norfloxacin MIC with EPI,[2]; S. aureus clinical isolate 13,128 µg/mL
same,Ciprofloxacin MIC with EPI,[2]; S. aureus clinical isolate 14,64 µg/mL
same,Norfloxacin MIC with EPI,[2]; S. aureus clinical isolate 14,128 µg/mL
same,Ciprofloxacin MIC with EPI,[2]; S. aureus clinical isolate 15,>64 µg/mL
same,Norfloxacin MIC with EPI,[2]; S. aureus clinical isolate 15,256 µg/mL
same,Ciprofloxacin MIC with EPI,[3]; E. faecalis clinical isolate 1,1 µg/mL
same,Norfloxacin MIC with EPI,[3]; E. faecalis clinical isolate 1,2 µg/mL
same,Ciprofloxacin MIC with EPI,[3]; E. faecalis clinical isolate 2,1 µg/mL
same,Norfloxacin MIC with EPI,[3]; E. faecalis clinical isolate 2,2 µg/mL
same,Ciprofloxacin MIC with EPI,[3]; E. faecalis clinical isolate 3,64 µg/mL
same,Norfloxacin MIC with EPI,[3]; E. faecalis clinical isolate 3,128 µg/mL
same,Ciprofloxacin MIC with EPI,[3]; E. faecalis clinical isolate 4,64 µg/mL
same,Norfloxacin MIC with EPI,[3]; E. faecalis clinical isolate 4,128 µg/mL
same,Ciprofloxacin MIC with EPI,[3]; E. faecalis clinical isolate 5,64 µg/mL
same,Norfloxacin MIC with EPI,[3]; E. faecalis clinical isolate 5,64 µg/mL
same,Ciprofloxacin MIC with EPI,[3]; E. faecalis clinical isolate 6,1 µg/mL
same,Norfloxacin MIC with EPI,[3]; E. faecalis clinical isolate 6,8 µg/mL
same,Ciprofloxacin MIC with EPI,[3]; E. faecalis clinical isolate 7,1 µg/mL
same,Norfloxacin MIC with EPI,[3]; E. faecalis clinical isolate 7,2 µg/mL
same,Ciprofloxacin MIC with EPI,[3]; E. faecalis clinical isolate 8,32 µg/mL
same,Norfloxacin MIC with EPI,[3]; E. faecalis clinical isolate 8,128 µg/mL
same,Ciprofloxacin MIC with EPI,[3]; E. faecalis clinical isolate 9,1 µg/mL
same,Norfloxacin MIC with EPI,[3]; E. faecalis clinical isolate 9,2 µg/mL
same,Ciprofloxacin MIC with EPI,[3]; [4],64 µg/mL
same,Norfloxacin MIC with EPI,[3]; [4],64 µg/mL
same,Ciprofloxacin MIC with EPI,[3]; [5],32 µg/mL
same,Norfloxacin MIC with EPI,[3]; [5],64 µg/mL
same,Ciprofloxacin MIC with EPI,[3]; [6],1 µg/mL
same,Norfloxacin MIC with EPI,[3]; [6],2 µg/mL
same,Ciprofloxacin MIC with EPI,[3]; [7],0.5 µg/mL
same,Norfloxacin MIC with EPI,[3]; [7],2 µg/mL
same,Ciprofloxacin MIC with EPI,[3]; [8],0.5 µg/mL
same,Norfloxacin MIC with EPI,[3]; [8],2 µg/mL
same,Ciprofloxacin MIC with EPI,[3]; [9],2 µg/mL
same,Norfloxacin MIC with EPI,[3]; [9],4 µg/mL
same,Ciprofloxacin MIC with EPI,[3]; [10],1 µg/mL
same,Norfloxacin MIC with EPI,[3]; [10],4 µg/mL
same,Ciprofloxacin MIC with EPI,[3]; [11],1 µg/mL
same,Norfloxacin MIC with EPI,[3]; [11],2 µg/mL
same,Ciprofloxacin MIC with EPI,[3]; [12],64 µg/mL
same,Norfloxacin MIC with EPI,[3]; [12],128 µg/mL
same,Ciprofloxacin MIC with EPI,[3]; [13],1 µg/mL
same,Norfloxacin MIC with EPI,[3]; [13],4 µg/mL
same,Ciprofloxacin MIC with EPI,[3]; [14],1 µg/mL
same,Norfloxacin MIC with EPI,[3]; [14],2 µg/mL
same,Ciprofloxacin MIC with EPI,[3]; [15],1 µg/mL
same,Norfloxacin MIC with EPI,[3]; [15],4 µg/mL
same,Ciprofloxacin MIC with EPI,[3]; [16],64 µg/mL
same,Norfloxacin MIC with EPI,[3]; [16],128 µg/mL
same,Ciprofloxacin MIC with EPI,[3]; [17],32 µg/mL
same,Norfloxacin MIC with EPI,[3]; [17],64 µg/mL
same,Ciprofloxacin MIC with EPI,[3]; [18],32 µg/mL
same,Norfloxacin MIC with EPI,[3]; [18],64 µg/mL
same,Ciprofloxacin MIC with EPI,[3]; [19],64 µg/mL
same,Norfloxacin MIC with EPI,[3]; [19],128 µg/mL
same,Ciprofloxacin MIC with EPI,[3]; [20],64 µg/mL
same,Norfloxacin MIC with EPI,[3]; [20],128 µg/mL
same,trend in the reduction of MICs for ciprofloxacin and norfloxacin,"[3]; E. faecalis isolates, Table 5B",less apparent
